From patent publication US8747888B2, “Dermal delivery device with in situ seal” (Agile Therapeutics, Inc., priority 2007, dated 2014)

Assay: Control of loss of volatile components: amounts in the AI patch after storage, by gas chromatography
Type: physicochemical
Conditions: 12 wks, device with in situ seal
Description: A transdermal hormone delivery device was prepared comprising an internal backing layer, an AI layer, and a release liner. […] The device also comprised an overlay comprising a polyurethane […] backing, which is able to absorb large amounts of the volatile excipients, DMSO and ethyl lactate, an acrylic PSA coated onto the polyurethane foam, and a PIB PSA coated on top of the acrylic PSA. […] The release liner was a Mylar polyester film coated with a fluoropolymer release coating. […] The devices were placed in a 25° C. or 40° C. oven. After 6 weeks and 12 weeks, devices were removed from the oven and the active section of each device was separated from the overlay. […] (12 weeks exposure to 40° C. is intended to simulate 18 months exposure to room temperature (25° C.)).

Compound: CCCCCCCCCCCCOC(=O)C(C)O (centres unmarked) [Lauryl Lactate, lauryl lactate]
- Amount in the AI patch (40° C.): 9.20 wt %
- Amount in the AI patch (room temp): 9.10 wt %
